Measurements: PMC8005870, “Membrane Lipid Requirements of the Lysine Transporter Lyp1 from Saccharomyces cerevisiae” (Journal of molecular biology, 2020)

Target: T1, Lyp1 (Lyp1-GFP) (Saccharomyces cerevisiae, UniProt P32487)
T1 construct: full-length Lyp1 with C-terminal TEV-GFP-His10 kept, expressed in Pichia pastoris SMD1163, DDM-solubilised, purified by IMAC and FSEC, reconstituted in proteoliposomes
T1 sequence (P32487 1-611): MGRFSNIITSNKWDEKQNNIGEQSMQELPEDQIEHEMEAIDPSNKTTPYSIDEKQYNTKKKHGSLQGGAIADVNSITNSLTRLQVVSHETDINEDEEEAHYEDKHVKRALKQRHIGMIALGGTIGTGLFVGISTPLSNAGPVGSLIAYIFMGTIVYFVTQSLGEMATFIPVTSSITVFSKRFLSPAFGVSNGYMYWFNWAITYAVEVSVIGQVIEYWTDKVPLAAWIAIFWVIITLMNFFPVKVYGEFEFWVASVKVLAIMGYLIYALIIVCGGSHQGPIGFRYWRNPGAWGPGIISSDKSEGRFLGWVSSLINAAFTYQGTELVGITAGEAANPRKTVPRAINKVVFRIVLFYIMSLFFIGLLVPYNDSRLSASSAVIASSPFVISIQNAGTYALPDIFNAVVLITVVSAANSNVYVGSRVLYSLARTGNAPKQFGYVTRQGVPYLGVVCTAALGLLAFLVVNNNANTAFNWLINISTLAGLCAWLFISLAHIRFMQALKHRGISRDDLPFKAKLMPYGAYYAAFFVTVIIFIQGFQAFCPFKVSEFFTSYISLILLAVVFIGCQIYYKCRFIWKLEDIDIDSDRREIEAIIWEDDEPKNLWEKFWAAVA
Assay: lysine transport turnover versus mol% lipid in proteoliposomes
Type: biochemical
Conditions: proton motive force about -160 mV (valinomycin K+ diffusion potential plus acetate gradient), pH 6.0; defined lipid vesicles; POPS titrated in POPS/POPE/ergosterol vesicles; sigmoidal, cooperative lip

`CCCCCCCC/C=C\CCCCCCCC(=O)O[C@H](COC(=O)CCCCCCCCCCCCCCC)COP(=O)(O)OC[C@H](N)C(=O)O` [POPS, 1-palmitoyl-2-oleoyl-sn-glycero-3-phosphoserine] was tested, and the “lysine transport turnover versus mol% lipid in proteoliposomes” value was “We found a sigmoidal relationship between Lyp1 activity and POPS concentration”.
